Results as given in ChEMBL document CHEMBL1129592 (J Med Chem, 1996).

Assays:
[1] = Selectivity ratio of IC50 values of 5-hydroxytryptamine 1A receptor vs 5-hydroxytryptamine 2 receptor
[2] = target: T1, Adrenergic receptor alpha-2 (Rattus norvegicus, UniProt P22086+P19328+P22909); experiment: Binding affinity towards rat Alpha-2 adrenergic receptor was evaluated using [3H]- yohimbine as radioligand; type: protein assay
T1 sequence (P22086 whole entry): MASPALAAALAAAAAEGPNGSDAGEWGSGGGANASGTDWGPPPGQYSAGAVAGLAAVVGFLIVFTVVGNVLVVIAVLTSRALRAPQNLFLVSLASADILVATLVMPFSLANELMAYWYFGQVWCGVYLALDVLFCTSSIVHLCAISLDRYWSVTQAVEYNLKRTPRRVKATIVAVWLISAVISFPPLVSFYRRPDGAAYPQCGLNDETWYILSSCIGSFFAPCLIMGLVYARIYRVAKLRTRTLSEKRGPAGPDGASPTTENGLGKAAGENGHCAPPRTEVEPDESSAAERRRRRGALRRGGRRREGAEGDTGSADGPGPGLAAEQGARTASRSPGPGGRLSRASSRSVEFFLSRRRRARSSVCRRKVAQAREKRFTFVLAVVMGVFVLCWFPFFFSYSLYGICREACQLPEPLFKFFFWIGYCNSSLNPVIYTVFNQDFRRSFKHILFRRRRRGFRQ
T1 sequence (P19328 whole entry): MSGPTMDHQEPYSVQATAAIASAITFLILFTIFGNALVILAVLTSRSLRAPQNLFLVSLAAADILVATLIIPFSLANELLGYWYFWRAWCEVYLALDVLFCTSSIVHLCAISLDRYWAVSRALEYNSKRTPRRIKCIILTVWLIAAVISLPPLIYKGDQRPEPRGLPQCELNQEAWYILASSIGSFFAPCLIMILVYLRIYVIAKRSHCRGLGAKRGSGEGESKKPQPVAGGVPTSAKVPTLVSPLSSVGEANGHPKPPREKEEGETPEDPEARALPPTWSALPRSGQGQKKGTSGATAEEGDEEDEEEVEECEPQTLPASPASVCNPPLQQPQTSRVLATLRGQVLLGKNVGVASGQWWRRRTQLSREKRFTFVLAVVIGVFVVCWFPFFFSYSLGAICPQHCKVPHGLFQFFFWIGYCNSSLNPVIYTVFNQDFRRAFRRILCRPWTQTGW
T1 sequence (P22909 whole entry): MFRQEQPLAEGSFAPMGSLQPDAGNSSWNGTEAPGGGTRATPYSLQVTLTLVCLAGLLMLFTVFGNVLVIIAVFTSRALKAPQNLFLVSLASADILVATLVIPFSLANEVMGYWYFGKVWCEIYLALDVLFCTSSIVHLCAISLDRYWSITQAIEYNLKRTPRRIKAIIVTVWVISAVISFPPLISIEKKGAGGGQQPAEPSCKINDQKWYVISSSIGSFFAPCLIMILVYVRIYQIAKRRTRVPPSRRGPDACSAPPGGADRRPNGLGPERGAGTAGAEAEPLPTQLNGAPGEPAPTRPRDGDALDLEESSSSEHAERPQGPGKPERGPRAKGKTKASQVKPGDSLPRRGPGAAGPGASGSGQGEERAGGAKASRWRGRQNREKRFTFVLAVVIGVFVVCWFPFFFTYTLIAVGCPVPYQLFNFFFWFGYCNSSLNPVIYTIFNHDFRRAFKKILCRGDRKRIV

[3] = Selectivity ratio of IC50 values of 5-hydroxytryptamine 1A receptor vs Alpha-2 adrenergic receptor
[4] = target: T2, Adrenergic receptor alpha-1 (Rattus norvegicus, UniProt P15823+P23944+P43140); experiment: Binding affinity towards rat Alpha-1 adrenergic receptor was evaluated using [3H]- prazosin as radioligand; type: protein assay
T2 sequence (P15823 whole entry): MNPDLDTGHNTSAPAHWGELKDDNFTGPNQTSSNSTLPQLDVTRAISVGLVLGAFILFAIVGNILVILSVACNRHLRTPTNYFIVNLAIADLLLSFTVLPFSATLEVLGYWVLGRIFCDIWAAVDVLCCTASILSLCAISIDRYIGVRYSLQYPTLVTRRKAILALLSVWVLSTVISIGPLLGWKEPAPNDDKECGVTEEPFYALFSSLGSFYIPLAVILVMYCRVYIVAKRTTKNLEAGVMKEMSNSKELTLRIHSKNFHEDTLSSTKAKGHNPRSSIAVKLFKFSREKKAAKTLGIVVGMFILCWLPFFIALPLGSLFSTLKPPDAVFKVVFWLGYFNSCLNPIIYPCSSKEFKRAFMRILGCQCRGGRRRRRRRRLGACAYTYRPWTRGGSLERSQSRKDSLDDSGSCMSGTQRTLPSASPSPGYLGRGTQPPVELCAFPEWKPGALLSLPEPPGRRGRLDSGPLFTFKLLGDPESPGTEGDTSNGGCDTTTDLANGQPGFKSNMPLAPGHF
T2 sequence (P23944 whole entry): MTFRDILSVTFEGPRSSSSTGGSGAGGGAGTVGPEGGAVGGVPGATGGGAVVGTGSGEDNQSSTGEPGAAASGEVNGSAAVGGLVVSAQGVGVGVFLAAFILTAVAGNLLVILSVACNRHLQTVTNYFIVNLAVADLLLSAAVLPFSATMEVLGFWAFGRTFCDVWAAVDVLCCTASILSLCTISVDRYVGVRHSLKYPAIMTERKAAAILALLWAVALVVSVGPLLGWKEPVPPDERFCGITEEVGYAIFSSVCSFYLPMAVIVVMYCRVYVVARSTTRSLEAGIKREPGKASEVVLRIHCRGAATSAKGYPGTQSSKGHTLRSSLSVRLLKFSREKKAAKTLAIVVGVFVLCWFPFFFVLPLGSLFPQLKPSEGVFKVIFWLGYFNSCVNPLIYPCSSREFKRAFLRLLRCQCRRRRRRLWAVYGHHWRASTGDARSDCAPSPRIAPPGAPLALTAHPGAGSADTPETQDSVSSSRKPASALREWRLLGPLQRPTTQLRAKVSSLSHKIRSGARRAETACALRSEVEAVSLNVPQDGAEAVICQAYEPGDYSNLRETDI
T2 sequence (P43140 whole entry): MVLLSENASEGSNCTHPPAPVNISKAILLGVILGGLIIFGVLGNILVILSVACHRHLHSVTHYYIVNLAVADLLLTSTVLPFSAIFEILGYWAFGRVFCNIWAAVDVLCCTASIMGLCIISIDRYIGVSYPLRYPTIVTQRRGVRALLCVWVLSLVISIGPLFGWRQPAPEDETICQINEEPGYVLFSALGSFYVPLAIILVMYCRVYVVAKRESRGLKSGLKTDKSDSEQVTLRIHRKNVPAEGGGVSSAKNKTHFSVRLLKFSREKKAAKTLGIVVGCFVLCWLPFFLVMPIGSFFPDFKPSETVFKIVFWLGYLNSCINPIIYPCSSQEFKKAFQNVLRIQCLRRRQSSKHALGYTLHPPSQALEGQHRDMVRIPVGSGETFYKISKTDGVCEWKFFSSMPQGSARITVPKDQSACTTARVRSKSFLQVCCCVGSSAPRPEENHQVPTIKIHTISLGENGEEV

[5] = Selectivity ratio of IC50 values of 5-hydroxytryptamine 1A receptor vs dopamine receptor D2
[6] = target: 5-hydroxytryptamine receptor 2A (Rattus norvegicus, UniProt P14842); experiment: Binding affinity towards rat 5-hydroxytryptamine 2A receptor was evaluated using [3H]- ketanserin as radioligand
Sequence of 5-hydroxytryptamine receptor 2A (P14842 whole entry): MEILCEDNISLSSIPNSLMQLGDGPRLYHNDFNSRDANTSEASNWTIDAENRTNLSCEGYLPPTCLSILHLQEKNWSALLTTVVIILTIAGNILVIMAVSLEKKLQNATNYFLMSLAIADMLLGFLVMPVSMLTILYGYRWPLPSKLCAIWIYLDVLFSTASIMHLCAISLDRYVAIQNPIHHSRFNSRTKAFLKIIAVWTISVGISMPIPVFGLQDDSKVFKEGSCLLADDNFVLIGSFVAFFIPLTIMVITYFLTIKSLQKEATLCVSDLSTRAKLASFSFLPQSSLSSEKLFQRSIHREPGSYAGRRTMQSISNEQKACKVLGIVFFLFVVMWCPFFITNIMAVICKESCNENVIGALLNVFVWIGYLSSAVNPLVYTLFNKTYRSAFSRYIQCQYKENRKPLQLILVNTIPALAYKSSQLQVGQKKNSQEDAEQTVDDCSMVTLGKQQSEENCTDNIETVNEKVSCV

[7] = target: D(2) dopamine receptor (Rattus norvegicus, UniProt P61169); experiment: Binding affinity towards rat Dopamine receptor D2 was evaluated using [3H]- spiroperidol as radioligand
Sequence of D(2) dopamine receptor (P61169 whole entry): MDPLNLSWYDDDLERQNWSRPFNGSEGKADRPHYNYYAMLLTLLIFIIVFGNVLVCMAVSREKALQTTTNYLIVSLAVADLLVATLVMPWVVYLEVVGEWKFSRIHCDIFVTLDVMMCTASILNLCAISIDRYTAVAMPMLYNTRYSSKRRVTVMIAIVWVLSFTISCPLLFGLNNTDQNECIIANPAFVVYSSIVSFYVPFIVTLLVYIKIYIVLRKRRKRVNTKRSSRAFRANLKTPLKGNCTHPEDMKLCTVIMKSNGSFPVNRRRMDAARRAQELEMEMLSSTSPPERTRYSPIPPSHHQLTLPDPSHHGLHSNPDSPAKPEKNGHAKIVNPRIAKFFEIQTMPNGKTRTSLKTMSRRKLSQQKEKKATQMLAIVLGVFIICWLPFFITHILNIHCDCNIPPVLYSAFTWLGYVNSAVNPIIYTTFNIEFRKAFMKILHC

[8] = target: T3, 5-hydroxytryptamine receptor 1A (Rattus norvegicus, UniProt P19327); experiment: Binding affinity towards rat 5-hydroxytryptamine 1A receptor was evaluated using [3H]8-OH-DPAT as radioligand
T3 sequence (P19327 whole entry): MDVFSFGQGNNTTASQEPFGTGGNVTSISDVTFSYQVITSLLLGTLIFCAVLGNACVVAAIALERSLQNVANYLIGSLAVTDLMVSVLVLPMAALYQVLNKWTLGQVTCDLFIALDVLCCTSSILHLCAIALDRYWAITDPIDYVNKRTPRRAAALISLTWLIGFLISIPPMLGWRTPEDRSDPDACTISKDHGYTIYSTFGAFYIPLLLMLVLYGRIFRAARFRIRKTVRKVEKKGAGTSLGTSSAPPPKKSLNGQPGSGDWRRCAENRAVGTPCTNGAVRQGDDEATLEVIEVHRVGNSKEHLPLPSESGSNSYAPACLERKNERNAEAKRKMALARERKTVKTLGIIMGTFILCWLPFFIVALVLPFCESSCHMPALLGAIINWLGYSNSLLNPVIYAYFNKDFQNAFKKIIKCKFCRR

Structure (SMILES)	Selectivity ratio [1]	IC50 [2]	Selectivity ratio [3]	IC50 [4]	Selectivity ratio [5]	IC50 [6]	IC50 [7]	IC50 [8]
COc1cccc2c1CCC/C2=C\CCN1CCN(c2ccccc2)CC1	31	290 nM	15	120 nM	5	580 nM	100 nM	
COc1ccc2c(c1)C(CCCN1CCN(c3ccccc3)CC1)=CCC2	0.8			173 nM	1	119 nM	157 nM	
COc1cccc2c1CCCC2CCCN1CCN(c2ccccc2)CC1 (centres undefined)	460		520		220	230 nM		
COc1ccc2c(c1)C=C(CCN1CCN(c3ccccc3)CC1)CC2	15	122 nM	18	58 nM	22	106 nM	136 nM	7.3 nM
COc1ccc2c(c1)CCC(CCN1CCN(c3ccccc3)CC1)C2 (centres undefined)	23	160 nM	43	79 nM	32	86 nM	120 nM	3.7 nM
COc1cccc2c1CCC(CCN1CCN(c3ccccc3)CC1)C2 (centres undefined)	3	600 nM	11	100 nM	2	160 nM	130 nM	54 nM
COc1cccc2c1C(CCCN1CCN(c3ccccc3)CC1)CCC2 (centres undefined)	11	140 nM	3	130 nM	1	610 nM	62 nM	56 nM
COc1ccc2c(c1)CC(CCN1CCN(c3ccccc3)CC1)CC2 (centres undefined)	64	260 nM	72	80 nM	28	230 nM	100 nM	3.6 nM
COc1ccccc1N1CCN(CCCC2CCCc3c(OC)cccc32)CC1 (centres undefined)						330 nM		
COc1cccc2c1CCCC2CCCN1CCN(c2ccccn2)CC1 (centres undefined)	462		89		259	250 nM		
COc1ccc2c(c1)CCCC2CCCN1CCN(c2ccccc2)CC1 (centres undefined)	30	170 nM	31	45 nM	17	160 nM	91 nM	
COc1cccc2c1CCC=C2CCCN1CCN(c2ccccc2)CC1	11				17	204 nM		
COc1cccc2c1CCCC2CCN1CCN(c2ccccc2)CC1 (centres undefined)	0.1	22 nM	0.2	84 nM	2	12 nM	210 nM	140 nM
COc1cccc2c1CCCC2CCCCN1CCN(c2ccccc2)CC1 (centres undefined)	28	770 nM	51	130 nM	7	420 nM	110 nM	15 nM
COc1cccc2c1CCC(CCN1CCN(c3ccccc3)CC1)=C2	1	357 nM	2	194 nM	1	241 nM	276 nM	191 nM
COc1ccc2c(c1)CCC(CCN1CCN(c3ccccc3)CC1)=C2	7	130 nM	16	88 nM	24	56 nM	170 nM	8.2 nM
CCCN(CCC)C1CCc2cccc(O)c2C1 (centres undefined) [8-OH-DPAT]						> 10000 nM		
